The results in this text go back to US8044076B2, “Phenyl derivatives and their use as immunomodulators” (Actelion Pharmaceuticals Ltd., priority 2006, dated 2011).

The target in this experiment is human S1P1 receptor (Homo sapiens, UniProt P21453). As to the kind of experiment: GTPγS assay to determine EC50 values. It counts as biochemical. Particulars: 35S-GTPγS binding, membrane preparations of CHO cells expressing recombinant human S1P1 receptor. How it is done:
GTPγS binding assays are performed in 96 well microtiter plates (Nunc, 442587) in a final volume of 200 μl, using membrane preparations of CHO cells expressing recombinant human S1P1 receptor. Assay conditions are 20 mM Hepes (Fluka, 54461), 100 mM NaCl (Fluka, 71378), 5 mM MgCl2 (Fluka, 63064), 0.1% BSA (Calbiochem, 126609), 1 μM GDP (Sigma, G-7127), 2.5% DMSO (Fluka, 41644), 50 pM ^35S-GTPγS (Amersham Biosciences, SJ1320). The pH is 7.4. Test compounds are dissolved and diluted in 100% DMSO and pre-incubated at room temperature for 30 min in 150 μl of the above assay buffer, in the absence of ^35S-GTPγS. After addition of 50 μl of ^35S-GTPγS, the assay is incubated for 1 h at rt. The assay is terminated by transfer of the reaction mixture to a Multiscreen plate (Millipore, MAHFC1H60) using a cell harvester from Packard Biosciences, and the plates are washed with ice-cold 10 mM Na2HPO4/NaH2PO4 (70%/30%), dried, sealed at the bottom and, after addition of 25 μl MicroScint20 (Packard Biosciences, order#6013621), sealed on the top. Membrane-bound ^35S-GTPγS is measured with a TopCount from Packard Biosciences.
EC50 is the concentration of agonist inducing 50% of the maximal specific ^35S-GTPγS binding. Specific binding is determined by subtracting non-specific binding from maximal binding. […]
The EC50 values were determined according to the method described above: […]

Chain of human S1P1 receptor (P21453 whole entry): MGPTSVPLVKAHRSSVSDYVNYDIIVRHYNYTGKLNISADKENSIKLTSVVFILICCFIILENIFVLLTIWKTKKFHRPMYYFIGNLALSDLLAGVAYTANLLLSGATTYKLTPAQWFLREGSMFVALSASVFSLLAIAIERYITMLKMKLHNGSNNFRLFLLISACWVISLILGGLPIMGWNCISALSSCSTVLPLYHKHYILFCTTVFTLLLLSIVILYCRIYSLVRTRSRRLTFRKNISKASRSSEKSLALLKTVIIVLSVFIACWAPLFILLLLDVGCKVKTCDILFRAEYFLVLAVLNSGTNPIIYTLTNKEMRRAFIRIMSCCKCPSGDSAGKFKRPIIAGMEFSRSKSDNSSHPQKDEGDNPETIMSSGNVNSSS

As for `Cc1cc(-c2nc(-c3cc(C)c(OCC(O)CNC(=O)CO)c(C)c3)no2)ccc1CC(C)C` (centres unmarked) [Example 20], the EC50 (in general, the midpoint of the concentration-response curve) came out at 800 pM. The same measure for `Cc1cc(-c2nc(-c3cc(C)c(OCC(O)CNC(=O)CO)c(C)c3)no2)ccc1OC(C)C` (centres unmarked) [Example 6]: 100 pM.
